{
  "source": "patent US20220089602A1",
  "about": "“COMPOUNDS THAT INDUCE FERROPTIC CELL DEATH” (The Board of Trustees of the University of Illinois, priority 2019, published 2022)",
  "key": {"ES-2 cell line": {"test_system": "ES-2 cell line", "experiment": "72 hr cell viability assay (Alamar Blue), dose response IC50", "format": "cell-based", "settings": "Homo sapiens; 72 hr, ES-2 cell line, Alamar Blue fluorescence, mean ± s.e.m., n ≥ 3", "description": "40 μL of media was added to each well of a 384-well tissue culture-treated plate. 3×100 nL of compound in DMSO was then pin-transferred from compound storage plates (2 mM stocks) into media-containing wells using the Platemate Plus at the UIUC High Throughput Screening Facility. A 100,000 cells/mL suspension of ES-2 cells was prepared, and 10 μL was added to each well for a final concentration of 1000 cells/well. Doxorubicin (100 μM final) was used as a positive control. Plates were sealed with gas-permeable seals and incubated at 37° C. for 72 h. After incubation, 5 μL of Alamar blue (440 μM resazurin in sterile PBS) was added and allowed to incubate for 3-4 h, until visible color change occurred. Fluorescence was measured in a Molecular Devices SpectraMax 3 (excitation=555 nm, emission=585 nm, emission cutoff=570 nm).\nTo a 384-well plate, 40 μL of 1.25× compound dilution or 1.25% DMSO-containing media was added (final volume of 1% DMSO). Concentrations of compounds tested were 100 μM to 100 nM. On each plate at least 3 technical replicates per compound were performed. Next, 10 μL of a 100,000 cells/mL suspension was added to each well, yielding a final concentration of 1,000 cells/well. To three wells in column 2 was added 1 μL of 10 mM doxorubicin (final concentration of 200 μM) as positive control of cell death. Plates were sealed with gas-permeable seals and incubated at 37° C. for 72 h. At that time, 5 μL of Alamar blue (440 μM resazurin in sterile PBS) was added and plates were incubated for 3-4 hours. Fluorescence was read on a Molecular Devices SpectraMax 3 (excitation=555 nm, emission=585 nm, emission cutoff=570 nm). Wells were normalized to the average of untreated wells (0% cell death). The data were plotted as compound concentration versus percent dead cells and fitted to a logistic-dose response curve using OriginPro 2015 (OriginLab, Northampton, Mass.). The data were generated in triplicate, and IC50 values are reported as the average of three separate experiments along with standard error of the mean."}, "PDP1": {"biological_target": "T1, PDP1 (Homo sapiens, UniProt Q9P0J1)", "T1 construct": "endogenous in cells; host or cells: HCT 116 (and ES-2) cells", "T1 sequence (Q9P0J1 72-537)": "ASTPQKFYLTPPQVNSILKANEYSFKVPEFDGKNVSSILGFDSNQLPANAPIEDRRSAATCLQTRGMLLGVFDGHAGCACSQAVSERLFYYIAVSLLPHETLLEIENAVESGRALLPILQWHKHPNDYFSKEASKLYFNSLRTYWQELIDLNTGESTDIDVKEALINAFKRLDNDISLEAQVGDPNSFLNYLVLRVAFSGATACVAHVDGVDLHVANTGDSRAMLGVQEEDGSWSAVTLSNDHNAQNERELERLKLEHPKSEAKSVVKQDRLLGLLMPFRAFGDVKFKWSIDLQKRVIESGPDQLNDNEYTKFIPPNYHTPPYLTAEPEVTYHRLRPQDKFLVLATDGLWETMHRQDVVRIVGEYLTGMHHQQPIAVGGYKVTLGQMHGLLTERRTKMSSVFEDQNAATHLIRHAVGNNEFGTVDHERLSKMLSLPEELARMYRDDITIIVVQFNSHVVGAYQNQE", "experiment": "Biotin-streptavidin pulldown with P29, competition by ferroptocide, LC/LC-MS/MS", "format": "binding", "settings": "DMSO/ferroptocide spectral count ratio of P29-labeled enriched proteins", "description": "(§1) ES-2 and HCT 116 (20×10^6 cells/flask) were plated in T175 flasks and treated with DMSO or 20 µM ferroptocide for 1 hr followed by treatment with 20 μM P29 for 1 hr. Cells were lysed via sonication (6500 g, 4 min) in DPBS and the soluble proteome was isolated after […] (45000 g, 45 min). Bradford assay was used to determine protein concentration. The soluble protein lysates in DPBS (pH 7.4) (500 μL, 2 mg/mL) were treated with biotin-azide (100 μM, 50× stock in DMSO), TCEP (1 mM, 50× fresh stock in water), TBTA ligand (100 μM, 17× stock in DMSO:t-butanol=1:4), and copper(II) sulfate (1 mM, 50× stock in water) followed by incubation at r.t. for 1 hr. Samples were centrifuged (6500 g, 4 min, 4° C.) and the supernatant was discarded. The pellets were resuspended in cold methanol by sonication (2×) and then were solubilized in DPBS containing 1.2% SDS via sonication and heating (90° C., 5 min). A final SDS concentration of 0.2% was achieved after addition of 5 mL of DPBS to the SDS-solubilized proteome samples. The solution was incubated overnight at 4° C. with 100 μL of streptavidin-agarose beads (ThermoFisher, washed 3× with DPBS to remove storage buffer). Samples were rotated at 22° C. for 2 hr before being washed by 5 mL 0.2% SDS/DPBS, 3×5 mL DPBS, and 3×5 mL water. The beads were pelleted by centrifugation (1400×g, 3 min) between washes.\n(§2) The washed beads were suspended in 500 μL of 6 M urea/DPBS and 10 mM DTT (from 20× stock in water) and heated for 20 min on a 65° C. heat block. Upon addition of iodoacetamide (20 mM from 50× stock in water), samples were allowed to react at 37° C. for 30 min while shaking. Following reduction and alkylation, the beads were pelleted by centrifugation and resuspended in 200 μL of 2 M urea/DPBS, 1 mM CaCl2) (100× stock in water), and sequencing-grade trypsin (2 μg). The bead digestion occurred overnight at 37° C. while shaking. Next day, the beads were pelleted by centrifugation and washed with 2×50 μL water. The washes were combined with the supernatant from the trypsin digestion step, and after addition of formic acid (15 μL) to each sample, they were stored at −20° C. until mass spectrometry analysis.\n(§3) LC/LC-MS/MS analysis was performed on an LTQ-Orbitrap Discovery mass spectrometer (ThermoFisher) coupled to an Agilent 1200 series HPLC. Peptide digests were pressure loaded onto a 250 m fused silica desalting column packed with 4 cm of Aqua C18 reverse phase resin (Phenomenex). The peptides were eluted onto a biphasic column (100 m fused silica with a 5, tip, packed with 10 cm C18 and 4 cm Partisphere strong cation exchange resin (SCX, Whatman) using a gradient 5-100% Buffer B in Buffer A (Buffer A: 95% water, 5% acetonitrile, 0.1% formic acid; Buffer B: 20% water, 80% acetonitrile, 0.1% formic acid). The peptides were then eluted from the SCX onto the C18 resin and into the mass spectrometer using 4 salt steps previously described (Nat. Protoc. 2, 1414-1425, (2007)). The flow rate through the column was set to ˜0.25 μL/min and the spray voltage was set to 2.75 kV. One full MS scan (FTMS) (400-1800 MW) was followed by 8 data dependent scans (ITMS) of the n^th most intense ions. The tandem MS data were searched using the SEQUEST algorithm using a concatenated target/decoy variant of the human UniProt database. A static modification of +57.02146 on cysteine was specified to account for alkylation by iodoacetamide. MS2 spectra matches were assembled into protein identifications and filtered using DTASelect2.0 to generate a list of protein hits with a peptide false-discovery rate of 5%. The mass spectrometry proteomics data have been deposited to the ProteomeXchange Consortium via the PRIDE [1] partner repository with the dataset identifier PXD012805."}, "PGLS": {"biological_target": "T2, PGLS (Homo sapiens, UniProt O95336)", "T2 construct": "endogenous in cells; host or cells: HCT 116 (and ES-2) cells", "T2 sequence (O95336 whole entry)": "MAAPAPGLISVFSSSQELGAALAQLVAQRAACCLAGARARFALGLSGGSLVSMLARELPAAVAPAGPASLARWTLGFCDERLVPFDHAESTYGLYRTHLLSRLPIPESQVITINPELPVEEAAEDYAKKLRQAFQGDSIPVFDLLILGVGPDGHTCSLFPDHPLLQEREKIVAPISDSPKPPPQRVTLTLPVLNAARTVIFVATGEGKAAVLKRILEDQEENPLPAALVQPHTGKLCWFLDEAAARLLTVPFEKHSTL", "experiment": "Biotin-streptavidin pulldown with P29, competition by ferroptocide, LC/LC-MS/MS", "format": "binding", "settings": "DMSO/ferroptocide spectral count ratio of P29-labeled enriched proteins", "description": "as §1, §2, §3"}, "TXN": {"biological_target": "T3, TXN (Homo sapiens, UniProt P10599)", "T3 construct": "endogenous in cells; host or cells: HCT 116 (and ES-2) cells", "T3 sequence (P10599 whole entry)": "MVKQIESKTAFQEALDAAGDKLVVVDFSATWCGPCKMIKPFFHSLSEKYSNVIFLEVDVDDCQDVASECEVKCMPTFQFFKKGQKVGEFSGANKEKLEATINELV", "experiment": "Biotin-streptavidin pulldown with P29, competition by ferroptocide, LC/LC-MS/MS", "format": "binding", "settings": "DMSO/ferroptocide spectral count ratio of P29-labeled enriched proteins", "description": "as §1, §2, §3"}, "TXNRD1": {"biological_target": "T4, TXNRD1 (Homo sapiens, UniProt Q16881)", "T4 construct": "HCT 116 cells were pre-treated with ferroptocide or DMSO, followed by treatment with P29; endogenous in cells; host or cells: HCT 116 (and ES-2) cells", "T4 sequence (Q16881 151-649 limits assumed)": "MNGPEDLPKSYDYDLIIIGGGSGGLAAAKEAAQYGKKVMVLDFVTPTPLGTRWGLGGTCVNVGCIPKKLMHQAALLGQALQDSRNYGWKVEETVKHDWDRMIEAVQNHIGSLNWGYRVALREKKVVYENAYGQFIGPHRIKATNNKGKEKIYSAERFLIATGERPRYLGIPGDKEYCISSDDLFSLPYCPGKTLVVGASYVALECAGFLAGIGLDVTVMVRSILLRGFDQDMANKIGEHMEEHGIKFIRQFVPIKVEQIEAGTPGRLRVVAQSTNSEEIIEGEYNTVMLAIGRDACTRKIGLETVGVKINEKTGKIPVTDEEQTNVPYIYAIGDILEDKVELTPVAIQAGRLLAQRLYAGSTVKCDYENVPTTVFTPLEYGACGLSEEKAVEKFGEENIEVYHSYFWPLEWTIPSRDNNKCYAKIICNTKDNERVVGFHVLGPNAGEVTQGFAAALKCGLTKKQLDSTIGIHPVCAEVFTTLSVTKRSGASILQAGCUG", "experiment": "Biotin-streptavidin pulldown with P29, competition by ferroptocide, LC/LC-MS/MS", "format": "binding", "settings": "DMSO/ferroptocide spectral count ratio of P29-labeled enriched proteins", "description": "as §1, §2, §3"}},
  "data": [
    {"smiles": "C[C@@H]1CC[C@@]23C[C@H](O)C(=O)[C@@]2(O)[C@]1(C)[C@H](OC(=O)CCl)C[C@@H](C1=CCn2c(=O)n(-c4ccccc4)c(=O)n2C1)[C@@H]3C", "note": "[Compound P18, ferroptocide]", "values": [
      {"measurement": "IC50", "setting": "ES-2 cell line", "value": 1.6, "unit": "µM"},
      {"measurement": "Fold Change", "setting": "PDP1", "value": 3.7},
      {"measurement": "Fold Change", "setting": "PGLS", "value": 2.7},
      {"measurement": "Fold Change", "setting": "TXN", "value": 11.1},
      {"measurement": "Fold Change", "setting": "TXNRD1", "value": 4.9}
    ]}
  ]
}
